Tests used:
HCC-2998 = test: NCI-60 one-dose assay; assay type: cell-based; settings: Homo sapiens, HCC-2998 (Colon Cancer), read-out: Cell Inhibition Percent
UACC-257 = test: NCI-60 one-dose assay; assay type: cell-based; settings: Homo sapiens, UACC-257 (Melanoma), read-out: Cell Inhibition Percent
SR = test: NCI-60 one-dose assay; assay type: cell-based; settings: Homo sapiens, SR (Leukemia), read-out: Cell Inhibition Percent
T-47D = test: NCI-60 one-dose assay; assay type: cell-based; settings: Homo sapiens, T47D, T-47D (Breast Cancer), read-out: Cell Inhibition Percent
OVCAR-3 = test: NCI-60 one-dose assay; assay type: cell-based; settings: Homo sapiens, OVCAR-3 (ovarian cancer), read-out: Cell Inhibition Percent
EKVX = test: NCI-60 one-dose assay; assay type: cell-based; settings: Homo sapiens, EKVX (Non-Small Cell Lung Cancer), read-out: Cell Inhibition Percent
OVCAR-4 = test: NCI-60 one-dose assay; assay type: cell-based; settings: Homo sapiens, OVCAR-4 (ovarian cancer), read-out: Cell Inhibition Percent
CCRF-CEM = test: NCI-60 one-dose assay; assay type: cell-based; settings: Homo sapiens, CCRF-CEM (Leukemia), read-out: Cell Inhibition Percent
MDA-MB-435 = test: NCI-60 one-dose assay; assay type: cell-based; settings: Homo sapiens, MDA-MB-435 (Melanoma), read-out: Cell Inhibition Percent
ACHN = test: NCI-60 one-dose assay; assay type: cell-based; settings: Homo sapiens, ACHN (Renal Cancer), read-out: Cell Inhibition Percent
UO-31 = test: NCI-60 one-dose assay; assay type: cell-based; settings: Homo sapiens, UO-31 (Renal Cancer), read-out: Cell Inhibition Percent
HS 578T = test: NCI-60 one-dose assay; assay type: cell-based; settings: Homo sapiens, HS 578T (Breast Cancer), read-out: Cell Inhibition Percent
HCT-116 = test: NCI-60 one-dose assay; assay type: cell-based; settings: Homo sapiens, HCT-116 (Colon Cancer), read-out: Cell Inhibition Percent
MDA-MB-468 = test: NCI-60 one-dose assay; assay type: cell-based; settings: Homo sapiens, MDA-MB-468 (Breast Cancer), read-out: Cell Inhibition Percent
HOP-62 = test: NCI-60 one-dose assay; assay type: cell-based; settings: Homo sapiens, HOP-62 (Non-Small Cell Lung Cancer), read-out: Cell Inhibition Percent
NCI-H226 = test: NCI-60 one-dose assay; assay type: cell-based; settings: Homo sapiens, NCI-H226 (Non-Small Cell Lung Cancer), read-out: Cell Inhibition Percent
SK-MEL-2 = test: NCI-60 one-dose assay; assay type: cell-based; settings: Homo sapiens, SK-MEL-2 (Melanoma), read-out: Cell Inhibition Percent
SK-OV-3 = test: NCI-60 one-dose assay; assay type: cell-based; settings: Homo sapiens, SK-OV-3 (ovarian cancer), read-out: Cell Inhibition Percent
NCI/ADR-RES = test: NCI-60 one-dose assay; assay type: cell-based; settings: Homo sapiens, NCI/ADR-RES (ovarian cancer), read-out: Cell Inhibition Percent
SNB-19 = test: NCI-60 one-dose assay; assay type: cell-based; settings: Homo sapiens, SNB-19 (CNS cancer), read-out: Cell Inhibition Percent
RPMI-8226 = test: NCI-60 one-dose assay; assay type: cell-based; settings: Homo sapiens, RPMI-8226 (Leukemia), read-out: Cell Inhibition Percent
HT29 = test: NCI-60 one-dose assay; assay type: cell-based; settings: Homo sapiens, HT-29, HT29 (Colon Cancer), read-out: Cell Inhibition Percent
A498 = test: NCI-60 one-dose assay; assay type: cell-based; settings: Homo sapiens, A498 (Renal Cancer), read-out: Cell Inhibition Percent
TK-10 = test: NCI-60 one-dose assay; assay type: cell-based; settings: Homo sapiens, TK-10 (Renal Cancer), read-out: Cell Inhibition Percent
MALME-3M = test: NCI-60 one-dose assay; assay type: cell-based; settings: Homo sapiens, MALME-3M (Melanoma), read-out: Cell Inhibition Percent
SNB-75 = test: NCI-60 one-dose assay; assay type: cell-based; settings: Homo sapiens, SNB-75 (CNS cancer), read-out: Cell Inhibition Percent
OVCAR-8 = test: NCI-60 one-dose assay; assay type: cell-based; settings: Homo sapiens, OVCAR-8 (ovarian cancer), read-out: Cell Inhibition Percent
LOX IMVI = test: NCI-60 one-dose assay; assay type: cell-based; settings: Homo sapiens, LOX IMVI (Melanoma), read-out: Cell Inhibition Percent
IGROV1 = test: NCI-60 one-dose assay; assay type: cell-based; settings: Homo sapiens, IGROV-1, IGROV1 (ovarian cancer), read-out: Cell Inhibition Percent
Renal Cancer subpanel = test: NCI-60 five-dose assay, subpanel; assay type: cell-based, human; settings: for GI50: Homo sapiens, average sensitivity of all subpanel cell lines, read-out: GI50 Subpanel MID b

Compound | inhibition at 10 µM (HCC-2998) | inhibition at 10 µM (UACC-257) | inhibition at 10 µM (SR) | inhibition at 10 µM (T-47D) | inhibition at 10 µM (OVCAR-3) | inhibition at 10 µM (EKVX) | inhibition at 10 µM (OVCAR-4) | inhibition at 10 µM (CCRF-CEM) | inhibition at 10 µM (MDA-MB-435) | inhibition at 10 µM (ACHN) | inhibition at 10 µM (UO-31) | inhibition at 10 µM (HS 578T) | inhibition at 10 µM (HCT-116) | inhibition at 10 µM (MDA-MB-468) | inhibition at 10 µM (HOP-62) | inhibition at 10 µM (NCI-H226) | inhibition at 10 µM (SK-MEL-2) | inhibition at 10 µM (SK-OV-3) | inhibition at 10 µM (NCI/ADR-RES) | inhibition at 10 µM (SNB-19) | also measured
O=C(NN=Cc1ccc([N+](=O)[O-])cc1)c1ccc2[nH]c(-c3ccc(Cl)cc3)nc2c1 [Compound 4c, N′-(4-Nitrobenzylidene)-2-(4-chlorophenyl)-1H-benzimidazole-5-carbohydrazide] | 85.1% | 74.9% | 108% | 89.5% | 88.7% | 51% | 77% | 90.1% | 52.4% | 67.7% | 57.4% | 63.2% | 85.4% | 139% | 55.2% | 45.2% | 33.3% | 39.5% | 22.7% | 48% | inhibition at 10 µM (RPMI-8226): 89.2%; inhibition at 10 µM (HT29): 91.8%; inhibition at 10 µM (A498): 100%; inhibition at 10 µM (TK-10): 10.2%; inhibition at 10 µM (MALME-3M): 92.2%; inhibition at 10 µM (SNB-75): 30.7%; inhibition at 10 µM (OVCAR-8): 78.4%; inhibition at 10 µM (LOX IMVI): 101%; inhibition at 10 µM (IGROV1): 80.9%; GI50 (Renal Cancer subpanel; Renal Cancer): 4300 nM; GI50 Selectivity Ratio (MID a/MID b) (Renal Cancer subpanel; Renal Cancer subpanel): 0.76
O=C(NN=Cc1ccc(Cl)cc1)c1ccc2[nH]c(-c3ccc(Cl)cc3)nc2c1 [Compound 4e, N′-(4-Chlorobenzylidene)-2-(4-chlorophenyl)-1H-benzimidazole-5-carbohydrazide] | 96.3% | 68.3% | 124% | 113% | 153% | 91.8% | 118% | 84.5% | 61.2% | 120% | 78.4% | 67% | 102% | 144% | 92% | 0.67% | 61.1% | 50.2% | 58.8% | 95.7% | inhibition at 10 µM (RPMI-8226): 97.2%; inhibition at 10 µM (HT29): 98.3%; inhibition at 10 µM (A498): 43.9%; inhibition at 10 µM (TK-10): 104%; inhibition at 10 µM (MALME-3M): 159%; inhibition at 10 µM (SNB-75): 1.6%; inhibition at 10 µM (OVCAR-8): 85.8%; inhibition at 10 µM (LOX IMVI): 156%; inhibition at 10 µM (IGROV1): 127%; GI50 (Renal Cancer subpanel; Renal Cancer): 1770 nM; GI50 Selectivity Ratio (MID a/MID b) (Renal Cancer subpanel; Renal Cancer subpanel): 1.01
COc1ccc(C=NNC(=O)c2ccc3[nH]c(-c4ccc(Cl)cc4)nc3c2)cc1 [Compound 4g, N′-(4-Methoxybenzylidene)-2-(4-chlorophenyl)-1H-benzimidazole-5-carbohydrazide] | 48.9% | 45.6% | 99.3% | 76.7% | 79.9% | 70.6% | 131% | 34.7% | 31.5% | 78.1% | 18.1% | 67.7% | 81% | 75.8% | 69.7% | 26.2% | 35.9% | 27.7% | 26.4% | 75.8% | inhibition at 10 µM (RPMI-8226): 40.8%; inhibition at 10 µM (HT29): 78.1%; inhibition at 10 µM (A498): 33.4%; inhibition at 10 µM (TK-10): 60.9%; inhibition at 10 µM (MALME-3M): 93.5%; inhibition at 10 µM (SNB-75): 8.15%; inhibition at 10 µM (OVCAR-8): 68.7%; inhibition at 10 µM (LOX IMVI): 99.1%; inhibition at 10 µM (IGROV1): 85.4%; GI50 (Renal Cancer subpanel; Renal Cancer): 2200 nM; GI50 Selectivity Ratio (MID a/MID b) (Renal Cancer subpanel; Renal Cancer): 1.14
CCNC(=S)NNC(=O)c1ccc2[nH]c(-c3ccc(Cl)cc3)nc2c1 [Compound 5] | 5.54% | 0% | 88.9% | 18.4% | 0% | 18.2% | 5.13% | 86.9% | 0.91% | 6.31% | 6.39% | 9.75% | 0% | 0% | 0.87% | 9.79% | 0% | 0.37% | 1.07% | 2.37% | inhibition at 10 µM (RPMI-8226): 95.8%; inhibition at 10 µM (HT29): 2.33%; inhibition at 10 µM (A498): 57.7%; inhibition at 10 µM (TK-10): 0%; inhibition at 10 µM (MALME-3M): 1.54%; inhibition at 10 µM (SNB-75): 7.77%; inhibition at 10 µM (OVCAR-8): 6.74%; inhibition at 10 µM (LOX IMVI): 12.4%; inhibition at 10 µM (IGROV1): 14.3%
CCn1c(-c2ccc3[nH]c(-c4ccc(Cl)cc4)nc3c2)n[nH]c1=S [Compound 6, 4-ethyl-5-(2-(4-chlorophenyl)-1H-benzimidazol-5-yl)-2,4-dihydro-3H-1,2,4triazole-3-thione] | 0% | 0% | 17.5% | 0.3% | 0% | 0.44% | 0.6% | 0% | 0% | 0% | 16.8% | 1.05% | 0% | 0% | 1.71% | 1.97% | 0% | 0% | 0% | 0% | inhibition at 10 µM (RPMI-8226): 0.68%; inhibition at 10 µM (HT29): 2.07%; inhibition at 10 µM (A498): 56.9%; inhibition at 10 µM (TK-10): 0%; inhibition at 10 µM (MALME-3M): 2.41%; inhibition at 10 µM (SNB-75): 3.91%; inhibition at 10 µM (OVCAR-8): 0%; inhibition at 10 µM (LOX IMVI): 0%; inhibition at 10 µM (IGROV1): 0.16%
